According to patent publication US5215981A, “Polyether antibiotic MI215-NF3 substance, production process thereof, and agent for control of chicken coccidiosis” (Hokko Chemical Industry Co., Ltd., priority 1988, dated 1993):

System: Eimeria tenella
Experiment: Anticoccidial activity in chicken inoculated with Eimeria tenella oocysts
Format: in vivo
Settings: for Rate (%) of relative body weight gain / Survival rate (%): 7 days after infection; for Lesion scores: cecum, 7th day after infection; for ACI (Anticoccidial Index): ACI=(relative weight gain+survival rate)-(lesion scores+oocyst scores)
Description: The activity of MI215-NF3 substance for controlling chicken coccidiosis was tested as summarized below.
1. Newly-hatched chicken (male) were preliminarily raised for 1 week, and […] chicken were used in the test.
2. The body weights of the chicken were individually measured at the beginning of the test. To make up each test group, ten chicken were selected and alloted in each group so as to minimize variations among the test groups.
3. Chicken were orally inoculated with 5×10^4 oocysts of Eimeria tenella per chick through a stomach probe tube.
4. After the oocyst inoculation, each chick was allowed to take ad libitum a feed which had been prepared by mixing a predetermined amount of MI215-NF3 substance (sodium salt) with a special feed containing no anticoccidial agent. Incidentally, the chicken were also allowed to drink water ad libitum.
5. Up to the 7th day after the oocyst inoculation, the number of oocysts in feces from each chick and the state of the feces were observed everyday.
6. Each chick was anatomized on the 7th day after the infection. Anatomical procedures were as follows.
1) The body weight of each chick was measured.
2) Each chick was sacrificed by dislocation of neck cervical fracture.
3) Each chick was subjected to celiotomy and the cecum was enucleated. The cecum was visually inspected for any lesions on both outer and inner walls of cecum.
4) The cecum thus inspected was individually disintegrated in a homogenizer, whereby a cecum suspension was prepared. The number of oocysts in the suspension was counted.
5) Based on the results of the above inspections, the value of ACI (Anticoccidial Index) was determined in accordance with the evaluation method proposed by Merck & Co., Inc., U.S.A., namely, by the following equation:
ACI=(rate (%) of relative body weight gain+survival rate (%) of
chick)-(lesion scores+oocyst scores)
Upon determination of the above ACI value, the "rate of weight gain" of the chicken in each group of chicken during the test period for estimation of the drug efficacy and the "rate of relative body weight gain" used for the calculation of ACI were evaluated in accordance with the following equations: […]
______________________________________
Rate (%) of body weight gain = [(mean body weight of
chicken at the end of the test - mean body
weight of the chicken at the beginning of
the test) .div. mean body weight of the chicken
at the beginning of the test] × 100.
Rate (%) of relative body weight gain =
[(rate of body weight gain of the treated group
or an infected but non-treated group) .div. rate
of body weight gain of a non-infected and non-
On the other hand, the term "lesion scores" means a value which is obtained by evaluating, in terms of indexes, the results of visual inspection of lesions on an enucleated cecum sample. The term "oocyst scores" means a value which is obtained by evaluating, in terms of indexes, the number of oocysts actually counted. Details of the procedure for the determination of ACI values are described, for example, in the literature compiled by Kiyoshi Tsunoda, "Chicken Coccidiosis", pp 95-101, Chikusan Shuppan Sha (May, 1983).

SMILES: CC[C@@]1([C@@H]2O[C@@H]([C@H]3O[C@@](O)(CO)[C@H](C)C[C@@H]3C)C[C@@H]2C)CC[C@H]([C@]2(C)CC[C@]3(C[C@H](O)[C@@H](C)[C@@H]([C@@H](C)[C@@H](OC)[C@H](C)C(=O)O)O3)O2)O1 [Monensin]
- Oocyst scores (100 ppm in feed): 20
- Rate (%) of relative body weight gain (100 ppm in feed): 96.13%
- Survival rate (%) (100 ppm in feed): 100%
- Lesion scores (100 ppm in feed): 32.0
- ACI (Anticoccidial Index) (100 ppm in feed): 144.1

SMILES: CC[C@@H](C(=O)[C@@H](C)[C@@H](O)[C@H](C)[C@@H]1O[C@@H]([C@@H](CC)C(=O)O)CC[C@@H]1C)[C@H]1O[C@]2(C=C[C@@H](O)[C@]3(CC[C@@](C)([C@H]4CC[C@](O)(CC)[C@H](C)O4)O3)O2)[C@H](C)C[C@@H]1C [Salinomycin, salinomycin]
- Oocyst scores (50 ppm in feed): 10
- Rate (%) of relative body weight gain (50 ppm in feed): 71.13%
- Survival rate (%) (50 ppm in feed): 100%
- Lesion scores (50 ppm in feed): 34.0
- ACI (Anticoccidial Index) (50 ppm in feed): 127.1
